For the test, the target named is PERK recombinant enzyme (cytoplasmic domain corresponding to residues 540-1115) (Homo sapiens (Human), UniProt Q9NZJ5). As to the kind of experiment: PERK enzyme assay, Method 1: ADP-Glo Kinase Assay (quantification of ADP formed). The class given is biochemical. The note with it: 52 microM ATP, 8 nM PERK, 300 microM eIF2alpha peptide substrate, 60 minutes at room temperature. The procedure: The biochemical activity of compounds was determined by incubation with PERK recombinant enzyme (cytoplasmic domain corresponding to residues 540-1115) and elF2alpha peptide substrate (Aminoacid sequence: LLSELSRRRIRSINK—SEQ ID Nr: 1; purchased from American Peptide Company, product #341923). This was followed by:
Method 1: Quantification of the ADP Tormed from the Kinase Reaction by ADP-Glo™ Kinase Assay (Promega Cat. 9102). Utra Pure ATP was Included into ADP-Glo™ Kinase Assay kit.
Compounds were 3-fold serially diluted in order to obtain from 3.333 to 0.000169 microM final concentration, then incubated for 60 minutes at room temperature in the presence of ATP, substrate and enzyme in a final volume of 15 microL of kinase buffer in 384-well plates (Perkin Elmer cat. #6007290).
The final concentration of the different reagents is 52 microM ATP, 8 nM PERK, 300 microM substrate, 50 mM Hepes pH 7.5, 3 mM MgCl2, 1 mM DTT, 3 microM Na3VO4, 0.2 mg/ml BSA, 1% DMSO.
After 60 minutes, an equal volume (15 microL) of ADP-Glo™ Reagent was added to each well to terminate the kinase reaction and deplete the remaining ATP. After 40 minutes, 30 microL of Kinase Detection Reagent is added, which simultaneously converts ADP to ATP and allows the newly synthesized ATP to be measured using a coupled luciferase/luciferin reaction. After further 40 minutes luminescence was read by ViewLux Instrument (Perkin Elmer). The data are analyzed by GraphPad Prism software which provides sigmoidal fittings of the curves for IC50 determination using a 4 parameter logistic equation: y=bottom+(top−bottom)/(1+10^((log IC50−x)*slope))
where x is the logarithm of the inhibitor concentration, y is the response; y starts at bottom and goes to top with a sigmoid shape.
Background: ADP-Glo turns the ADP formed in a reaction into a luminescent signal.
PERK recombinant enzyme (cytoplasmic domain corresponding to residues 540-1115), sequence (Q9NZJ5 540-1115): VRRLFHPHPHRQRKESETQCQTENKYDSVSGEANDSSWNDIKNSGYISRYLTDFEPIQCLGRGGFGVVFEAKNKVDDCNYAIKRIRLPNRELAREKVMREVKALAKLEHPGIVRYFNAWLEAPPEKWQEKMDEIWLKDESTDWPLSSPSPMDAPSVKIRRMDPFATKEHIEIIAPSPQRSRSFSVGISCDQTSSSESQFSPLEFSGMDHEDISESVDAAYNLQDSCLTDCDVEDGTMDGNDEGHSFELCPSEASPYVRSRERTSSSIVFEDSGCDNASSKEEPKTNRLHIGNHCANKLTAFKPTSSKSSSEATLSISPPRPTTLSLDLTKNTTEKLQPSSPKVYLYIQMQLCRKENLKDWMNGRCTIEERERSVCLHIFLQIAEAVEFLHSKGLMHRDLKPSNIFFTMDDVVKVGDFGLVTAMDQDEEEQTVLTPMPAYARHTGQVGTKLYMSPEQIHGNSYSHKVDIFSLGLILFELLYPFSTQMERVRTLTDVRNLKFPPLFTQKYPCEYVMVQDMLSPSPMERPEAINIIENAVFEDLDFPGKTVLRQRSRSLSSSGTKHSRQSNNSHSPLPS
For the compound `COc1ccc(S(=O)(=O)Nc2cccc(-c3nn(C)c4ncnc(N)c34)c2F)cc1Cl` [cmpd 35, N-[3-(4-Amino-1-methyl-1H-pyrazolo[3,4-d]pyrimidin-3-yl)-2-fluoro-phenyl]-3-chloro-4-methoxy-benzenesulfonamide], the pIC50 entry was “AA (7.8 ≤ pIC50)”.
Regarding `COc1ccc(S(=O)(=O)Nc2cccc(-c3cn(C4CCOCC4)c4ncnc(N)c34)c2F)cc1C` [cmpd 36, N-{3-[4-Amino-7-(tetrahydro-pyran-4-yl)-7H-pyrrolo[2,3-d]pyrimidin-5-yl]-2-fluoro-phenyl}-4-methoxy-3-methyl-benzenesulfonamide], the IC50 is 15.8 to 50.1 nM.
Turning to `COc1ccc(S(=O)(=O)Nc2cccc(-c3cn(C4CCOCC4)c4ncnc(N)c34)c2F)cc1Cl` [cmpd 37, N-{3-[4-Amino-7-(tetrahydro-pyran-4-yl)-7H-pyrrolo[2,3-d]pyrimidin-5-yl]-2-fluoro-phenyl}-3-chloro-4-methoxy-benzenesulfonamide], the IC50 was 15.8 to 50.1 nM.
Regarding `COc1ccc(S(=O)(=O)Nc2cccc(-c3cn(C4CCN(C)CC4)c4ncnc(N)c34)c2F)cc1C` [cmpd 38, N-{3-[4-Amino-7-(1-methyl-piperidin-4-yl)-7H-pyrrolo[2,3-d]pyrimidin-5-yl]-2-fluoro-phenyl}-4-methoxy-3-methyl-benzenesulfonamide], the pIC50 result is reported as “AA (7.8 ≤ pIC50)”.
For `COc1ccc(S(=O)(=O)Nc2cccc(-c3cn(C4CCN(C5CC5)CC4)c4ncnc(N)c34)c2F)cc1C` [cmpd 39, N-{3-[4-Amino-7-(1-cyclopropyl-piperidin-4-yl)-7H-pyrrolo[2,3-d]pyrimidin-5-yl]-2-fluoro-phenyl}-4-methoxy-3-methyl-benzenesulfonamide], the IC50 is 15.8 to 50.1 nM.
For the compound `COc1ccc(S(=O)(=O)Nc2cccc(-c3cn(C4CCN(C(C)C)CC4)c4ncnc(N)c34)c2F)cc1C` [cmpd 40, N-{3-[4-Amino-7-(1-isopropyl-piperidin-4-yl)-7H-pyrrolo[2,3-d]pyrimidin-5-yl]-2-fluoro-phenyl}-4-methoxy-3-methyl-benzenesulfonamide], the IC50 is 15.8 to 50.1 nM.
For `CCN1CCC(n2cc(-c3cccc(NS(=O)(=O)c4ccc(OC)c(C)c4)c3F)c3c(N)ncnc32)CC1` [cmpd 41, N-{3-[4-Amino-7-(1-ethyl-piperidin-4-yl)-7H-pyrrolo[2,3-d]pyrimidin-5-yl]-2-fluoro-phenyl}-4-methoxy-3-methyl-benzenesulfonamide], the IC50 was 15.8 to 50.1 nM.
For the compound `COc1cc(F)c(S(=O)(=O)Nc2cccc(-c3cn(C)c4ncnc(N)c34)c2F)cc1C` [cmpd 44, N-[3-(4-Amino-7-methyl-7H-pyrrolo[2,3-d]pyrimidin-5-yl)-2-fluoro-phenyl]-2-fluoro-4-methoxy-5-methyl-benzenesulfonamide], the pIC50 entry is listed as “AA (7.8 ≤ pIC50)”.
On to `Cn1cc(-c2cccc(NS(=O)(=O)c3cc(F)c(Br)cc3F)c2F)c2c(N)ncnc21` [cmpd 46, N-[3-(4-Amino-7-methyl-7H-pyrrolo[2,3-d]pyrimidin-5-yl)-2-fluoro-phenyl]-4-bromo-2,5-difluoro-benzenesulfonamide], for which the pIC50 result is “AA (7.8 ≤ pIC50)”.
On to `Cn1cc(-c2cccc(NS(=O)(=O)c3ccc(Cl)s3)c2F)c2c(N)ncnc21` [cmpd 47, 5-Chloro-thiophene-2-sulfonic acid [3-(4-amino-7-methyl-7H-pyrrolo[2,3-d]pyrimidin-5-yl)-2-fluoro-phenyl]-amide], for which the IC50 was 15.8 to 50.1 nM.
Turning to `Cn1cc(-c2cccc(NS(=O)(=O)c3ccc(Br)s3)c2F)c2c(N)ncnc21` [cmpd 48, 5-Bromo-thiophene-2-sulfonic acid [3-(4-amino-7-methyl-7H-pyrrolo[2,3-d]pyrimidin-5-yl)-2-fluoro-phenyl]-amide], the IC50 was 15.8 to 50.1 nM.
For `Cn1cc(-c2cccc(NS(=O)(=O)c3cc(C(F)(F)F)cc(C(F)(F)F)c3)c2F)c2c(N)ncnc21` [cmpd 49, N-[3-(4-Amino-7-methyl-7H-pyrrolo[2,3-d]pyrimidin-5-yl)-2-fluoro-phenyl]-3,5-bis-trifluoromethyl-benzenesulfonamide], the IC50 is 50.1 to 158 nM.
`Cn1cc(-c2cccc(NS(=O)(=O)c3ccc(OC(F)(F)F)c(Cl)c3)c2F)c2c(N)ncnc21` [cmpd 50, N-[3-(4-Amino-7-methyl-7H-pyrrolo[2,3-d]pyrimidin-5-yl)-2-fluoro-phenyl]-3-chloro-4-trifluoromethoxy-benzenesulfonamide]: the pIC50 result is listed as “C (pIC50 < 6.8)”.
Turning to `Cn1cc(-c2cccc(NS(=O)(=O)c3ccc(Br)c(C(F)(F)F)c3)c2F)c2c(N)ncnc21` [cmpd 51, N-[3-(4-Amino-7-methyl-7H-pyrrolo[2,3-d]pyrimidin-5-yl)-2-fluoro-phenyl]-4-bromo-3-trifluoromethyl-benzenesulfonamide], the IC50 was 15.8 to 50.1 nM.
For the compound `Cc1cc(S(=O)(=O)Nc2cccc(-c3cn(C)c4ncnc(N)c34)c2F)ccc1Br` [cmpd 52, N-[3-(4-Amino-7-methyl-7H-pyrrolo[2,3-d]pyrimidin-5-yl)-2-fluoro-phenyl]-4-bromo-3-methyl-benzenesulfonamide], the pIC50 entry is on record as “AA (7.8 ≤ pIC50)”.
Consider `COc1cc(F)c(S(=O)(=O)Nc2cccc(-c3csc4ccnc(N)c34)c2F)cc1Cl` [cmpd 59, N-[3-(4-Amino-thieno[3,2-c]pyridin-3-yl)-2-fluoro-phenyl]-5-chloro-2-fluoro-4-methoxy-benzenesulfonamide], for which the IC50 is 50.1 to 158 nM.
Same read-out and setting: as for `COc1ccc(S(=O)(=O)Nc2cccc(-c3cn(C4CCNCC4)c4ncnc(N)c34)c2F)cc1C` [cmpd 64, N-[3-(4-Amino-7-piperidin-4-yl-7H-pyrrolo[2,3-d]pyrimidin-5-yl)-2-fluoro-phenyl]-4-methoxy-3-methyl-benzenesulfonamide], the figure is 15.8 to 50.1 nM.
Consider `Cn1cc(-c2cccc(NS(=O)(=O)c3ccc(O)c(Cl)c3)c2F)c2c(N)ncnc21` [cmpd 67, N-[3-(4-Amino-7-methyl-7H-pyrrolo[2,3-d]pyrimidin-5-yl)-2-fluoro-phenyl]-3-chloro-4-hydroxy-benzenesulfonamide], for which the pIC50 entry is listed as “C (pIC50 < 6.8)”.
Turning to `COc1cc(F)c(S(=O)(=O)Nc2cccc(-c3cn(C(C)C)c4ncnc(N)c34)c2F)cc1Cl` [cmpd 74, N-[3-(4-Amino-7-isopropyl-7H-pyrrolo[2,3-d]pyrimidin-5-yl)-2-fluoro-phenyl]-5-chloro-2-fluoro-4-methoxy-benzenesulfonamide], the IC50 was 50.1 to 158 nM.
As for `CCn1cc(-c2cccc(NS(=O)(=O)c3cc(Cl)c(OC)cc3F)c2F)c2c(N)ncnc21` [cmpd 75, N-[3-(4-Amino-7-ethyl-7H-pyrrolo[2,3-d]pyrimidin-5-yl)-2-fluoro-phenyl]-5-chloro-2-fluoro-4-methoxy-benzenesulfonamide], the IC50 was 15.8 to 50.1 nM.
On the same count and under the same terms, as for `COc1cc(F)c(S(=O)(=O)Nc2cccc(-c3cn(C4CCOCC4)c4ncnc(N)c34)c2F)cc1Cl` [cmpd 76, N-{3-[4-Amino-7-(tetrahydro-pyran-4-yl)-7H-pyrrolo[2,3-d]pyrimidin-5-yl]-2-fluoro-phenyl}-5-chloro-2-fluoro-4-methoxy-benzenesulfonamide], the figure is 50.1 to 158 nM.
Take `COc1ccc(S(=O)(=O)Nc2cccc(-c3cn(C)c4ncnc(N)c34)c2F)cn1` [cmpd 81, 6-Methoxy-pyridine-3-sulfonic acid [3-(4-amino-7-methyl-7H-pyrrolo[2,3-d]pyrimidin-5-yl)-2-fluoro-phenyl]-amide]: the IC50 is 50.1 to 158 nM.
Turning to `Cn1cc(-c2cccc(NS(=O)(=O)c3ccc(Cl)cc3F)c2F)c2c(N)ncnc21` [cmpd 85, N-[3-(4-Amino-7-methyl-7H-pyrrolo[2,3-d]pyrimidin-5-yl)-2-fluoro-phenyl]-4-chloro-2-fluoro-benzenesulfonamide], the IC50 was 15.8 to 50.1 nM.
In the case of `COc1ccc(S(=O)(=O)Nc2cccc(-c3cn(C)c4ncnc(N)c34)c2F)cc1C#N` [cmpd 86, N-[3-(4-Amino-7-methyl-7H-pyrrolo[2,3-d]pyrimidin-5-yl)-2-fluoro-phenyl]-3-cyano-4-methoxy-benzenesulfonamide], the IC50 is 15.8 to 50.1 nM.
In the case of `COc1ccc(S(=O)(=O)Nc2cccc(-c3cn(C)c4ncnc(N)c34)c2F)cc1Br` [cmpd 87, N-[3-(4-Amino-7-methyl-7H-pyrrolo[2,3-d]pyrimidin-5-yl)-2-fluoro-phenyl]-3-bromo-4-methoxy-benzenesulfonamide], the pIC50 entry was “AA (7.8 ≤ pIC50)”.

Usually IC50 stands for the point on the concentration scale where inhibition reaches its midpoint.

For the origin of these results see patent US10918642B2, “N-(substituted-phenyl)-sulfonamide derivatives as kinase inhibitors” (Nerviano Medical Sciences S.R.L., priority 2016, dated 2021).
